Source: patent publication US20230203081A1, “LINCOSAMIDE ANTIBIOTICS AND USES THEREOF” (President and Fellows of Harvard College, priority 2020, published 2023)
Converted amounts (≈) assume the structure as drawn. “Also recorded” adds a separate entry of the source. Like-named read-outs stand apart in the source and are kept apart here.

Tests used:
[1] = system: E. faecalis VRE; experiment: MIC (CLSI), second E. faecalis VRE line of Table 4; assay type: cell-based; conditions: Enterococcus faecalis
Experimental: (§1) Minimum inhibitory concentrations (MICs) were determined by broth microdilution method or agar dilution method following the Clinical and Laboratory Standards Institute guidelines. Standard bacterial strains were obtained from American Type Culture Collection (ATCC). Other bacterial strains were obtained from hospitals and commercial sources, so noted in Table 11. Before the start of the MIC experiment, standard and test compound stock solutions were prepared in dimethyl sulfoxide (DMSO, Aldrich D2650) at a stock concentration of 5,120 μg/mL. The compound concentration range typically employed for each experiment was 128-0.06 μg/mL (2.5% final DMSO concentration). Clindamycin was used as a comparator in all experiments and each experiment was performed in triplicate. Specialized procedures were employed for streptococcal and anaerobic strains. All other bacterial strains were sub-cultured on blood agar plates (tryptic soy agar with 5% sheep blood, Hardy Diagnostics) and incubated overnight at 35° C. Organisms were suspended in cation-adjusted Mueller-Hinton broth (CaMHB, BD 212322) and optical density was adjusted to 0.5 McFarland standard. Suspensions were further diluted to obtain a final inoculum of 5×10^5 CFU/mL for broth microdilution experiments.

[2] = system: E. coli strain SQ110DTC; experiment: MIC in LB medium against E. coli SQ110DTC and its FSA-513018b-resistant mutants (Table 14); assay type: cell-based; conditions: Escherichia coli
[3] = system: Escherichia coli c-ermB; experiment: MIC, clinically derived E. coli with acquired resistance; assay type: cell-based
Experimental: as §1

[4] = system: E. faecalis VRE; experiment: MIC (CLSI), first E. faecalis VRE line of Table 4; assay type: cell-based; conditions: Enterococcus faecalis, VRE
Experimental: as §1

[5] = system: S. aureus MMX USA 300; MRSA; experiment: MIC (broth microdilution or agar dilution, CLSI); assay type: cell-based; conditions: Staphylococcus aureus
In short: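 Triplicate CLSI determinations by broth or agar dilution, compound at 128-0.06 μg/mL in 2.5% DMSO; special handling for anaerobes. Broth microdilution used 5×10^5 CFU/mL inocula in cation-adjusted Mueller-Hinton broth.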

[6] = mouse, microsomes
[7] = system: human erythrocytes; experiment: Hemolysis of human erythrocytes relative to Triton X-100; assay type: cell-based; conditions: result in words
[8] = system: S. aureus (MRSA); experiment: Murine neutropenic thigh infection model; conditions: neutropenic mouse thigh, 24 h after a single intraperitoneal dose of 60 mg/kg
Experimental: (§5) Animal studies: Animal experiments were performed at the Biology Research Infrastructure Laboratory of Harvard University following IACUC-approved protocols. Animals were maintained in accordance with National Research Council guidelines. Pathogen-free, 5-6-week-old, female CD-1 mice weighing 22-26 grams were obtained from Charles River Laboratories, Inc. (Kingston, N.Y.). Animals were acclimated for a minimum of three days prior to start of the studies. Mice were caged as a group of four per cage, were housed at 21-23° C. with humidity ranging from 30-70%, were exposed to 12-hour light and dark cycles, and were supplied with food and water ad libitum.
(§6) Mouse thigh infection studies: Mice were rendered neutropenic by administering cyclophosphamide intraperitoneally, 150 mg/kg four days prior, and 100 mg/kg one day prior to infection. Bacterial strains were cultured overnight on blood agar plates at 35° C. in 5% CO2. […] Homogenates were serially diluted and plated on blood agar plates (each sample was plated in duplicate), and bacterial counts (log10 CFU/thigh) were determined after incubating the plates overnight at 35° C. in 5% CO2. Each experiment was repeated twice, and mean values were calculated (n=4 mice per time point).

[9] = system: E. coli HAV504; experiment: Murine neutropenic thigh infection model; assay type: in vivo, mice; conditions: neutropenic mouse thigh, E. coli HAV504 (FIG. 4C)
[10] = system: S. pyogenes ATCC 19615; experiment: Murine neutropenic thigh infection model; conditions: neutropenic mouse thigh, S. pyogenes ATCC 19615, 24 h after a single intraperitoneal dose of 60 mg/kg
Experimental: as §5, §6

[11] = Plasma protein binding, species m; assay type: in vitro ADME; conditions: mouse
[12] = Mammalian cell growth inhibition (CellTiter-Blue cell viability assay); assay type: cell-based, human; conditions: human, A549, K562, HCT116 and HepG2 cells; mammalian cells, 72 h
Experimental: (§2) Mammalian cell experiments: All compounds were dissolved in sterile DMSO to a stock concentration of 20 μM and aliquoted prior to freezing at −20° C. Aliquots were limited to a maximum of 3 freeze-thaw cycles. A549 (human pulmonary carcinoma; […]) cells were cultured in Dulbecco's Modified Eagle Medium (DMEM) supplemented with 10% fetal bovine serum. K562 (human chronic myelogenous leukemia; […]) cells were cultured in Iscove's Modification of DMEM (IMDM) media supplemented with 10% fetal bovine serum. HCT116 (human colorectal carcinoma; […]) cells were cultured in McCoy's 5a (Iwakata & Grace Modification) media supplemented with 10% fetal bovine serum. HepG2 (human hepatocellular carcinoma; […]) cells were cultured in Eagle's Minimum Essential Medium (EMEM) supplemented with 10% fetal bovine serum. All cell cultures were maintained in a 5% CO2 incubator at 37° C.
(§3) Growth inhibition was studied using the Promega CellTiter-Blue cell viability assay pursuant to the manufacturer's protocol. Briefly, cells were harvested, diluted, and mixed with the desired concentration of test compound. […] Plates were read on a SpectraMax i3 plate reader. GI50 values were determined by nonlinear regression using GraphPad Prism and represent the mean of at least three independent experiments.

[13] = system: mammalian cells (A549, K562, HCT116, HepG2); experiment: as above; assay type: cell-based, human; conditions: cell-culture safety profiling; result in words
Experimental: as §2, §3

[14] = system: H. influenzae ATCC 49247; experiment: MIC (broth microdilution or agar dilution, CLSI); assay type: cell-based
In short: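 Isolates other than streptococci and anaerobes, which had their own procedures, were grown overnight at 35° C on tryptic soy agar with 5% sheep blood. Suspensions were then diluted to a final inoculum of 5×10^5 CFU/mL in broth microdilution wells.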

[15] = system: E. faecalis ATCC 29212; experiment: Spontaneous resistance in standard bacterial strains; assay type: cell-based; conditions: agar with 4×, 8×, 16× MIC, 3 days
Experimental: (§4) […]. Bacterial strains (S. aureus ATCC 29213, S. aureus MRSA, and E. faecalis ATCC 29212) were suspended in normal saline and optical density was adjusted to 1.50 at 600 nm. Bacterial counts were measured by serial dilution and plating. Bacterial inoculum (250 μL) was transferred to the media plate and was spread evenly. Plates were incubated at 37° C. for 3 days, and were observed daily for resistant colonies to emerge.

[16] = system: S. aureus ATCC 29213, S. aureus MRSA; experiment: as above; assay type: cell-based; conditions: agar with 4×, 8×, 16× MIC, 3 days
Experimental: as §4

[17] = clone SA-3R1, mutation 2058G, selection plate 1 μg/mL FSA-513018b
[18] = clone SA-3R2, mutation 2059G, selection plate […] FSA-513018b
[19] = clone SA-3R9, mutation 2058G, selection plate […] FSA-513018b
[20] = clone SA-3R13, mutation 2059G, selection plate 1 μg/mL FSA-513018b

In the case of CCC[C@@H]1C[C@@H](C(=O)N[C@@H]([C@H]2O[C@H](SC)[C@H](O)[C@@H](O)[C@H]2O)[C@H](C)Cl)N(C)C1 [Clindamycin, clindamycin, reference compound], the MIC ([1]; VRE) is reported as over 128 µg/mL, the MIC ([2]; E. coli SQ110DTC, WT) is reported as 16 µg/mL (≈ 37.6 µM) and the MIC [2, 17] is reported as over 128 µg/mL. The MIC [2, 18] was over 128 µg/mL, the MIC [2, 19] was over 128 µg/mL and the MIC [2, 20] was over 128 µg/mL. It also gave an MIC ([3]; Escherichia coli) of over 128 µg/mL, an MIC [4] of over 128 µg/mL and an MIC [5] of 0.25 µg/mL (≈ 0.588 µM).

Molecule CSC1O[C@H]([C@H](NC(=O)[C@H]2NC[C@@H]3C[C@H](CC(C)C)CCO[C@H]32)[C@H](C)Cl)C(O)[C@@H](O)[C@H]1O (stereo partly shown) [FSA-513018b] has an MIC ([1]; E. faecalis VRE (Table 4, second VRE line), read-out: MIC) of 1 µg/mL (≈ 2.02 µM), an MIC ([2]; E. coli SQ110DTC, WT) of 0.03 µg/mL (≈ 0.0606 µM) and an MIC [2, 17] of 4 µg/mL (≈ 8.08 µM). The MIC [2, 18] was 2 µg/mL (≈ 4.04 µM), the MIC [2, 19] was 4 µg/mL (≈ 8.08 µM) and the MIC [2, 20] was 2 µg/mL (≈ 4.04 µM). The MIC ([2]; read-out: MICs of resistant clones, SQ110DTC clones selected on agar containing FSA-513018b (A2058G or A2059G in 23S rRNA)) was 2 to 4 µg/mL (≈ 4.04 to 8.08 µM), the “Clint,mic” value [6] was 21 and the MIC ([3]; E. coli HAV#504, Clinical, cErmB) was 8 µg/mL (≈ 16.2 µM). The MIC ([3]; Escherichia coli) was 8 µg/mL (≈ 16.2 µM), the hemolysis [7] was “non-hemolytic” and the “reduction in bacterial burden vs clindamycin- and vehicle-treated controls” value [8] was “statistically significant reductions”. The “efficacy in thigh infection model” value [9] was “effective”, the “reduction in bacterial burden vs clindamycin- and vehicle-treated controls” value [10] was “statistically significant reductions” and the fraction unbound [11] was 0.05. The GI50 at 72 h [12] was over 50 µM, the “toxicity toward mammalian cells” value [13] was “non-toxic” and the MIC ([14]; H. influenzae HAV#007, ATCC 49247) was 1 µg/mL (≈ 2.02 µM). The MIC ([14]; Haemophilus influenzae, ATCC49247, H. influenzae ATCC 49247, read-out: MIC) was 1 µg/mL (≈ 2.02 µM), the spontaneous resistance [15] was “not observed; also recorded: No colonies were noted on any plate” and the spontaneous resistance [16] was “not observed; also recorded: No colonies were noted on any plate”.

With CN[C@H](CC(C)C)C(=O)N[C@H]1C(=O)N[C@@H](CC(N)=O)C(=O)N[C@H]2C(=O)N[C@H]3C(=O)N[C@H](C(=O)N[C@H](C(=O)O)c4cc(O)cc(O)c4-c4cc3ccc4O)[C@H](O)c3ccc(c(Cl)c3)Oc3cc2cc(c3O[C@@H]2O[C@H](CO)[C@@H](O)[C@H](O)[C@H]2O[C@H]2C[C@](C)(N)[C@H](O)[C@H](C)O2)Oc2ccc(cc2Cl)[C@H]1O [Vancomycin] the MIC ([14]; Haemophilus influenzae, ATCC49247) was over 64 µg/mL.
